Test results as given in patent publication US20120122843A1, “Compounds and Their Use for Treatment of Amyloid Beta-Related Diseases” (ASTRAZENECA AB, priority 2010, published 2012).

Legend:
[1] = system: Aβ42; test: Aβ42 release from HEK cells stably expressing APPswe (MSD electrochemiluminescence); format: cell-based, Human; settings: 4-6 h incubation with test compound, Aβ42 secreted to cell medium
Experimental: (§1) The level of activity of the compounds on Aβ formation was tested using the following method:
(§2) Compounds were diluted in 100% DMSO and stored at […] prior to use. Human Embryonic Kidney (HEK) cell line stably expressing APP with the Swedish mutation (APPswe) were cultured using Dulbecco's Modified Eagles medium (DMEM) supplied with […] glucose, Na-pyruvate and GlutaMAX with 10% FBS, 100 U/ml penicillin-streptomycin (PEST) respectively, 1× non-essential amino acids (NEAA), […] Hepes, 100 μg/ml Zeocine. Cells at about 80% confluence were washed with PBS, detached from culture flasks using 1× Trypsin/EDTA diluted in PBS, re-suspended in cell media and plated in 384-well poly-d-lysine coated cell culture plates at about 10000-15000 cells/well, in 25 μL cell media. Optionally, cryo-preserved cells (frozen and stored at −140° C. in 90% cell media and 10% DMSO) were thawed, washed and plated as above. Next the cells were incubated for 15-24 h at 37° C. and 5% CO2, after which cell medium was changed. Fresh medium containing test compound diluted ×200 from prepared compound plate was added to the cells before further incubation for 4-6 hours at 37° C. and 5% CO2. After incubation with test compound the amount of Aβ peptides, including Aβ42, Aβ40, Aβ39, Aβ38 and Aβ37, as well as total Aβ levels, secreted to cell medium was analyzed using the electrochemiluminescence assay technology from Meso Scale Discovery (MSD), in combination with specific antibodies raised against the different Aβ peptides. Aβ42, Aβ40 and Aβ38 antibodies were purchased from MSD and Aβ37 and Aβ39 were made in house. Total Aβ was measured using a combination of 6E10 and 4G8 anti Aβ antibodies from MSD. Potential cytotoxic effects of the compounds were usually assayed by measuring the ATP content (ViaLight) from cell lysate.

[2] = system: Aβtotal; test: Total Aβ release from HEK cells stably expressing APPswe (MSD, 6E10 and 4G8 antibodies); format: cell-based; settings: Homo sapiens, HEK293, 4-6 h incubation with test compound, total Aβ secreted to cell medium
Experimental: as §1, §2

[3] = system: Notch; test: Release and translocation of Notch intracellular domain into the nucleus, HEK/AENotch cells (NICD immunostaining, ImageXpress); format: cell-based, Human; settings: 3 μM Lactacystin, 4-6 h incubation, nucleus/cytosol NICD fluorescence ratio
Experimental: The level of activity of the compounds on release and translocation of Notch intracellular domain into the cell nucleus was tested using the following method:
Compounds were diluted in 100% DMSO and stored at […] prior to use. Human Embryonic Kidney cell line overexpressing Notchl-E-human-myc construct (referred to as HEK/AENotch) were cultured in T75 cm^2 or T225 cm^2 cell culture flasks using Dulbecco's Modified Eagles medium (DMEM) supplemented with […] glucose, Na-pyruvate and GlutaMAX with 10% FBS, 100 U/ml penicillin-streptomycin (PEST) respectively, 1× non-essential amino acids (NEAA), […] Hepes and 100 μg/ml Hygromycin. Cells at about 80% confluence were washed with PBS, detached from the flask bottom using 1× Trypsin/EDTA diluted in PBS, re-suspended in cell media and plated in 384-well plates at about 10000 cells/well, in 25 μL cell media. Optionally, cryo-preserved cells (frozen and stored at −140° C. in 90% cell media and 10% DMSO) were thawed, washed and plated as above. Next the cells were incubated for 15-24 h at 37° C. and 5% CO2, after which cell medium was replaced with fresh medium containing 3 μM Lactacystin and test compound diluted ×200 from prepared compound plate giving 0.5% final DMSO concentration, and the highest compound concentration typically 25 μM. Cells were then incubated 4-6 h with test compound before being fixed, washed and immunostained with NICD antibody (rabbit Notch 1 (C-20)). Image acquisition of cytosolic/membrane and nuclear fluorescence as well as subsequent analysis of the nucleus and cytosolic fluorescence ratio was carried out using ImageXpress. Potential cytotoxic effects of the compounds were usually assayed by analysis of nucleus area or cell number.

[4] = Homo sapiens, HEK293, HEK cells expressing APPswe

Row | IC50 [1, 4] | IC50 [2] | IC50 ([1]; HEK cells expressing APPswe) | SMILES | IC50 ([3]; Homo sapiens) | IC50 [3]
1 | 0.012 µM | 8.72 µM | – | COc1nc(Nc2ccc3c(n2)OC(CCC(F)(F)F)CN(C)C3)ccc1-c1cnn(C)c1 (stereo not shown) [Example 27, [6-Methoxy-5-(1-methyl-1H-pyrazol-4-yl)-pyridin-2-yl]-[6-methyl-8-(3,3,3-trifluoro-propyl)-5,6,7,8-tetrahydro-9-oxa-1,6-diaza-benzocyclohepten-2-yl]-amine] | 16.3 µM | –
2 | 0.013 µM | 1.85 µM | – | COc1nc(Nc2ccc3c(n2)OC(c2nc(C)cs2)CN(C)C3)ccc1-n1cnc(C)c1 (stereo not shown) [Example 12, N-(6-Methoxy-5-(4-methyl-1H-imidazol-1-yl)pyridin-2-yl)-4-methyl-2-(4-methylthiazol-2-yl)-2,3,4,5-tetrahydropyrido[3,2-f][1,4]oxazepin-8-amine] | > 25 µM | –
3 | 0.007 µM | > 5 µM | – | COc1nc(Nc2ccc3c(n2)OC(CC(CF)CF)CN(C)C3)ccc1-n1cnc(C)c1 (stereo not shown) [Example 32, [8-(3-Fluoro-2-fluoromethyl-propyl)-6-methyl-5,6,7,8-tetrahydro-9-oxa-1,6-diaza-benzocyclohepten-2-yl]-[6-methoxy-5-(4-methyl-imidazol-1-yl)-pyridin-2-yl]-amine] | > 7.9 µM | –
4 | – | – | 0.005 µM | COc1nc(Nc2ccc3c(n2)OC(CCC(F)(F)F)CN(C)C3)ccc1-n1cnc(C)c1 (single isomer, unassigned; (-)) [Example 62, (−)-[6-Methoxy-5-(4-methyl-imidazol-1-yl)-pyridin-2-yl]-[6-methyl-8-(3,3,3-trifluoro-propyl)-5,6,7,8-tetrahydro-9-oxa-1,6-diaza-benzocyclohepten-2-yl]-amine] | – | > 25 µM
5 | 0.081 µM | – | – | Cc1ncn(-c2ccc(Nc3ccc4c(n3)OC(c3ccc(Cl)cc3)CN(C)C4)nc2)n1 (stereo not shown) [Example 24, 2-(4-Chlorophenyl)-4-methyl-N-(5-(3-methyl-1H-1,2,4-triazol-1-yl)pyridin-2-yl)-2,3,4,5-tetrahydropyrido[3,2-f][1,4]oxazepin-8-amine] | > 7.9 µM | –
6 | 0.005 µM | – | – | COc1nc(Nc2ccc3c(n2)OC(CC(F)(F)F)CN(C)C3)ccc1-c1ccnc(C)c1 (stereo not shown) [Example 8, (2-Methoxy-2′-methyl-[3,4′]bipyridinyl-6-yl)-[6-methyl-8-(2,2,2-trifluoro-ethyl)-5,6,7,8-tetrahydro-9-oxa-1,6-diaza-benzocyclohepten-2-yl]-amine] | 3.25 µM | –
7 | – | – | 0.014 µM | COc1nc(Nc2ccc3c(n2)OC(c2nc(C)cs2)CN(C)C3)ccc1-c1cnn(C)c1 (single isomer, unassigned; (-)) [Example 11, (−)-N-(6-Methoxy-5-(1-methyl-1H-pyrazol-4-yl)pyridin-2-yl)-4-methyl-2-(4-methylthiazol-2-yl)-2,3,4,5-tetrahydropyrido[3,2-f][1,4]oxazepin-8-amine] | 1.44 µM | –
8 | – | – | 0.019 µM | COc1nc(Nc2ccc3c(n2)O[C@H](c2ccc(F)cn2)CN(C)C3C)ccc1-c1cnn(C)c1 (single isomer, unassigned) [Example 51] | – | > 25 µM
9 | 0.019 µM | – | – | COc1nc(Nc2ccc3c(n2)OC(c2nc(C)cs2)CN(C)C3)ccc1-c1cnn(C)c1 (stereo not shown) [Example 9, N-(6-Methoxy-5-(1-methyl-1H-pyrazol-4-yl)pyridin-2-yl)-4-methyl-2-(4-methylthiazol-2-yl)-2,3,4,5-tetrahydropyrido[3,2-f][1,4]oxazepin-8-amine] | > 15.8 µM | –
10 | – | – | 0.007 µM | COc1nc(Nc2ccc3c(n2)OC(c2nc(C)cs2)C(C)N(C)C3)ccc1-c1cnn(C)c1 (single isomer, unassigned) [Example 30, N-(6-Methoxy-5-(1-methyl-1H-pyrazol-4-yl)pyridin-2-yl)-3,4-dimethyl-2-(4-methylthiazol-2-yl)-2,3,4,5-tetrahydropyrido[3,2-f][1,4]oxazepin-8-amine] | – | > 25 µM
11 | 0.023 µM | – | – | COc1nc(Nc2cc(C)c3c(n2)OC(CC(F)(F)F)CN(C)C3)ccc1-c1cnn(C)c1 (stereo not shown) [Example 2, N-(6-Methoxy-5-(1-methyl-1H-pyrazol-4-yl)pyridin-2-yl)-4,6-dimethyl-2-(2,2,2-trifluoroethyl)-2,3,4,5-tetrahydropyrido[3,2-f][1,4]oxazepin-8-amine] | 1.14 µM | –
12 | – | – | 0.021 µM | COc1nc(Nc2ccc3c(n2)OC(CC(F)(F)F)CN(C)C3)ccc1-c1cnn(C)c1 (single isomer, unassigned; (-)) [Example 5, (−)-N-(6-Methoxy-5-(1-methyl-1H-pyrazol-4-yl)pyridin-2-yl)-4-methyl-2-(2,2,2-trifluoroethyl)-2,3,4,5-tetrahydropyrido[3,2-f][1,4]oxazepin-8-amine] | – | > 25 µM
13 | 0.01 µM | – | – | COc1nc(Nc2ccc3c(n2)O[C@H](c2ccc(F)cn2)CN(C)C3C)ccc1-n1cnc(C)c1 (single isomer, unassigned; (-)) [Example 52] | 7.2 µM | –
14 | 0.048 µM | – | – | COc1nc(Nc2cc(C)c3c(n2)OC(C2CC2)CN(C)C3)ccc1-c1cnn(C)c1 (stereo not shown) [Example 13, 2-Cyclopropyl-N-(6-methoxy-5-(1-methyl-1H-pyrazol-4-yl)pyridin-2-yl)-4,6-dimethyl-2,3,4,5-tetrahydropyrido[3,2-f][1,4]oxazepin-8-amine] | > 5 µM | –
15 | 0.004 µM | – | – | COc1nc(Nc2ccc3c(n2)OC(CC(F)(F)F)CN(C)C3)ccc1-c1cnc(C)o1 (stereo not shown) [Example 47, N-[6-Methoxy-5-(2-methyloxazol-5-yl)-2-pyridyl]-4-methyl-2-(2,2,2-trifluoroethyl)-3,5-dihydro-2H-pyrido[3,2-f][1,4]oxazepin-8-amine] | > 25 µM | –
16 | 0.044 µM | – | – | Cc1cn(-c2ccc(Nc3ccc4c(n3)O[C@H](c3nc(C)cs3)CN(C)C4)nc2C#N)cn1 [Example 55, 3-(4-Methylimidazol-1-yl)-6-[[(2S)-4-methyl-2-(4-methylthiazol-2-yl)-3,5-dihydro-2H-pyrido[3,2-f][1,4]oxazepin-8-yl]amino]pyridine-2-carbonitrile] | > 25 µM | –
17 | – | – | 0.007 µM | COc1nc(Nc2ccc3c(n2)OC(c2nc(C)cs2)C(C)N(C)C3)ccc1-n1cnc(C)c1 (single isomer, unassigned; (-)) [Example 59, (−)-N-(6-Methoxy-5-(4-methyl-1H-imidazol-1-yl)pyridin-2-yl)-3,4-dimethyl-2-(4-methylthiazol-2-yl)-2,3,4,5-tetrahydropyrido[3,2-f][1,4]oxazepin-8-amine] | > 25 µM | –
18 | 0.06 µM | – | – | COc1nc(Nc2ccc3c(n2)OC(c2ccc(C)cn2)CN(C)C3)ccc1-c1cnn(C)c1 (stereo not shown) [Example 41, N-(6-Methoxy-5-(1-methyl-1H-pyrazol-4-yl)pyridin-2-yl)-4-methyl-2-(5-methylpyridin-2-yl)-2,3,4,5-tetrahydropyrido[3,2-f][1,4]oxazepin-8-amine] | > 25 µM | –
19 | 0.018 µM | – | – | COc1nc(Nc2ccc3c(n2)OC(CC(F)(F)F)CN(C)C3)ccc1-n1cnc(C)c1 (stereo not shown) [Example 6, N-(6-Methoxy-5-(4-methyl-1H-imidazol-1-yl)pyridin-2-yl)-4-methyl-2-(2,2,2-trifluoroethyl)-2,3,4,5-tetrahydropyrido[3,2-f][1,4]oxazepin-8-amine] | > 7.9 µM | –
20 | 0.225 µM | – | – | Cc1cn(-c2ccc(Nc3cc(C)c4c(n3)OC(CC(F)(F)F)CN(C)C4)nc2)cn1 (stereo not shown) [Example 1, 4,6-Dimethyl-N-(5-(4-methyl-1H-imidazol-1-yl)pyridin-2-yl)-2-(2,2,2-trifluoroethyl)-2,3,4,5-tetrahydropyrido[3,2-f][1,4]oxazepin-8-amine] | > 50 µM | –
